Source: US20020065219A1, “Water soluble thiazolyl peptide derivatives” (priority 2000, published 2002)
In brackets after ≈: the same amount, converted by molar mass. Like-named read-outs stand apart in the source and are kept apart here.

Experiments:
Experiment in all cases: MIC, broth micro dilution assay (NCCLS)
Type in all cases: cell-based
[1] = test system: Staphylococcus aureus A15090
[2] = test system: Streptococcus pneumoniae A28272
[3] = test system: Enterococcus faecalis A20688
[4] = Mueller-Hinton medium, 35° C., 18 hours
[5] = 50% Mueller-Hinton medium and 50% Todd Hewitt medium, 35° C., 18 hours

Compound	MIC (μg/mL) against Staphylococcus aureus A15090 [1]	MIC (μg/mL) against Streptococcus pneumoniae A28272 [2]	MIC (μg/mL) against Enterococcus faecalis A20688 [3]	MIC (μg/mL) against Staphylococcus aureus A15090 [1, 4]	MIC (μg/mL) against Streptococcus pneumoniae A28272 [2, 5]	MIC (μg/mL) against Enterococcus faecalis A20688 [3, 4]
COCCOCCOCCOCCN1CCN(CC(NC(=O)c2csc(-c3nc4c(cc3O)-c3nc(cs3)C(=O)NC(C(C)O)C(=O)N/C(=C(\C)OC)c3nc(cs3)C(=O)NC3c5nc(cs5)C(=O)NC(COC(=O)c5c6c7c(cccc7n5O)COC(=O)C(O[C@H]5C[C@](C)(O)[C@H](N(C)C)[C@H](C)O5)C3OC6)c3nc-4cs3)n2)C(N)=O)CC1 (stereo partly drawn) [Example 69]	0.5 µg/mL (≈ 0.292 µM)	0.25 µg/mL (≈ 0.146 µM)	4.0 µg/mL (≈ 2.33 µM)			
CO/C(C)=C1/NC(=O)C(C(C)O)NC(=O)c2csc(n2)-c2cc(O)c(-c3nc(C(=O)NC(CNCc4cc(OC)c(OC)c(OC)c4)C(N)=O)cs3)nc2-c2csc(n2)C2COC(=O)c3c4c5c(cccc5n3O)COC(=O)C(O[C@H]3C[C@](C)(O)[C@H](N(C)C)[C@H](C)O3)C(OC4)C(NC(=O)c3csc1n3)c1nc(cs1)C(=O)N2 (stereo partly drawn) [Example 70]	0.25 µg/mL (≈ 0.153 µM)	0.06 µg/mL (≈ 0.0367 µM)	4.0 µg/mL (≈ 2.45 µM)			
COC(C)=C1NC(=O)C(C(C)O)NC(=O)c2csc(n2)-c2cc(O)c(-c3nc(C(=O)NC(CN4CCN(Cc5cc(OC)c(OC)c(OC)c5)CC4)C(N)=O)cs3)nc2-c2csc(n2)C2COC(=O)c3c4c5c(cccc5n3O)COC(=O)C(OC3CC(C)(O)C(N(C)C)C(C)O3)C(OC4)C(NC(=O)c3csc1n3)c1nc(cs1)C(=O)N2 (stereo not drawn) [Example 71]	1.0 µg/mL (≈ 0.587 µM)	0.5 µg/mL (≈ 0.293 µM)	2.0 µg/mL (≈ 1.17 µM)			
COCCOCCOCCN1CCN(CC(NC(=O)c2csc(-c3nc4c(cc3O)-c3nc(cs3)C(=O)NC(C(C)O)C(=O)NC(=C(C)OC)c3nc(cs3)C(=O)NC3c5nc(cs5)C(=O)NC(COC(=O)c5c6c7c(cccc7n5O)COC(=O)C(OC5CC(C)(O)C(N(C)C)C(C)O5)C3OC6)c3nc-4cs3)n2)C(N)=O)CC1 (stereo not drawn) [Example 72]	4.0 µg/mL (≈ 2.4 µM)	0.5 µg/mL (≈ 0.299 µM)	4.0 µg/mL (≈ 2.4 µM)			
COC(C)=C1NC(=O)C(C(C)O)NC(=O)c2csc(n2)-c2cc(O)c(-c3nc(C(=O)NC(CN4CC5CC4CN5C)C(N)=O)cs3)nc2-c2csc(n2)C2COC(=O)c3c4c5c(cccc5n3O)COC(=O)C(OC3CC(C)(O)C(N(C)C)C(C)O3)C(OC4)C(NC(=O)c3csc1n3)c1nc(cs1)C(=O)N2 (stereo not drawn) [Example 73]	0.25 µg/mL (≈ 0.161 µM)	0.015 µg/mL (≈ 0.00968 µM)	2.0 µg/mL (≈ 1.29 µM)			
COC(C)=C1NC(=O)C(C(C)O)NC(=O)c2csc(n2)-c2cc(O)c(-c3nc(C(=O)NC(CN4CC5CC4CN5C)C(N)=O)cs3)nc2-c2csc(n2)C2COC(=O)c3c4c5c(cccc5n3O)COC(=O)C(OC3CC(C)(O)C(N(C)C)C(C)O3)C(OC4)C(NC(=O)c3csc1n3)c1nc(cs1)C(=O)N2 (stereo not drawn) [Example 74]	0.5 µg/mL (≈ 0.323 µM)	0.015 µg/mL (≈ 0.00968 µM)	2.0 µg/mL (≈ 1.29 µM)			
COC(C)=C1NC(=O)C(C(C)O)NC(=O)c2csc(n2)-c2cc(O)c(-c3nc(C(=O)NC(CN4CCN(Cc5nc(OC)cc(OC)n5)CC4)C(N)=O)cs3)nc2-c2csc(n2)C2COC(=O)c3c4c5c(cccc5n3O)COC(=O)C(OC3CC(C)(O)C(N(C)C)C(C)O3)C(OC4)C(NC(=O)c3csc1n3)c1nc(cs1)C(=O)N2 (stereo not drawn) [Example 77]	0.125 µg/mL (≈ 0.0746 µM)	0.015 µg/mL (≈ 0.00895 µM)	0.5 µg/mL (≈ 0.298 µM)			
COC(C)=C1NC(=O)C(C(C)O)NC(=O)c2csc(n2)-c2cc(O)c(-c3nc(C(=O)NC(CN4CCCC4CO)C(N)=O)cs3)nc2-c2csc(n2)C2COC(=O)c3c4c5c(cccc5n3O)COC(=O)C(OC3CC(C)(O)C(N(C)C)C(C)O3)C(OC4)C(NC(=O)c3csc1n3)c1nc(cs1)C(=O)N2 (stereo not drawn) [Example 78]				0.03 µg/mL (≈ 0.0195 µM)	0.007 µg/mL (≈ 0.00455 µM)	0.125 µg/mL (≈ 0.0812 µM)
COC(C)=C1NC(=O)C(C(C)O)NC(=O)c2csc(n2)-c2cc(O)c(-c3nc(C(=O)NC(CN4CCCC4COc4cccnc4)C(N)=O)cs3)nc2-c2csc(n2)C2COC(=O)c3c4c5c(cccc5n3O)COC(=O)C(OC3CC(C)(O)C(N(C)C)C(C)O3)C(OC4)C(NC(=O)c3csc1n3)c1nc(cs1)C(=O)N2 (stereo not drawn) [Example 79]	0.06 µg/mL (≈ 0.0371 µM)	0.001 µg/mL (≈ 0.000619 µM)	0.125 µg/mL (≈ 0.0774 µM)			
COCC(Cn1ccnc1)SCC(NC(=O)c1csc(-c2nc3c(cc2O)-c2nc(cs2)C(=O)NC(C(C)O)C(=O)NC(=C(C)OC)c2nc(cs2)C(=O)NC2c4nc(cs4)C(=O)NC(COC(=O)c4c5c6c(cccc6n4O)COC(=O)C(OC4CC(C)(O)C(N(C)C)C(C)O4)C2OC5)c2nc-3cs2)n1)C(N)=O (stereo not drawn) [Example 80]				0.25 µg/mL (≈ 0.155 µM)	0.03 µg/mL (≈ 0.0186 µM)	0.125 µg/mL (≈ 0.0776 µM)
COC(C)=C1NC(=O)C(C(C)O)NC(=O)c2csc(n2)-c2cc(O)c(-c3nc(C(=O)NC(CN4CCCC4C(O)C(C)C)C(N)=O)cs3)nc2-c2csc(n2)C2COC(=O)c3c4c5c(cccc5n3O)COC(=O)C(OC3CC(C)(O)C(N(C)C)C(C)O3)C(OC4)C(NC(=O)c3csc1n3)c1nc(cs1)C(=O)N2 (stereo not drawn) [Example 81]				0.125 µg/mL (≈ 0.0791 µM)	0.007 µg/mL (≈ 0.00443 µM)	0.125 µg/mL (≈ 0.0791 µM)
COC(C)=C1NC(=O)C(C(C)O)NC(=O)c2csc(n2)-c2cc(O)c(-c3nc(C(=O)NC(CN(C)CCC(=O)Nc4ccncc4)C(N)=O)cs3)nc2-c2csc(n2)C2COC(=O)c3c4c5c(cccc5n3O)COC(=O)C(OC3CC(C)(O)C(N(C)C)C(C)O3)C(OC4)C(NC(=O)c3csc1n3)c1nc(cs1)C(=O)N2 (stereo not drawn) [Example 82]				0.5 µg/mL (≈ 0.309 µM)	0.03 µg/mL (≈ 0.0186 µM)	0.5 µg/mL (≈ 0.309 µM)
COC(C)=C1NC(=O)C(C(C)O)NC(=O)c2csc(n2)-c2cc(O)c(-c3nc(C(=O)NC(CN(C)CCCNc4ccncc4)C(N)=O)cs3)nc2-c2csc(n2)C2COC(=O)c3c4c5c(cccc5n3O)COC(=O)C(OC3CC(C)(O)C(N(C)C)C(C)O3)C(OC4)C(NC(=O)c3csc1n3)c1nc(cs1)C(=O)N2 (stereo not drawn) [Example 83]				1.0 µg/mL (≈ 0.624 µM)	0.25 µg/mL (≈ 0.156 µM)	0.5 µg/mL (≈ 0.312 µM)
COC(C)=C1NC(=O)C(C(C)O)NC(=O)c2csc(n2)-c2cc(O)c(-c3nc(C(=O)NC(CN4CCC4CO)C(N)=O)cs3)nc2-c2csc(n2)C2COC(=O)c3c4c5c(cccc5n3O)COC(=O)C(OC3CC(C)(O)C(N(C)C)C(C)O3)C(OC4)C(NC(=O)c3csc1n3)c1nc(cs1)C(=O)N2 (stereo not drawn) [Example 84]	0.5 µg/mL (≈ 0.328 µM)	0.125 µg/mL (≈ 0.082 µM)	0.25 µg/mL (≈ 0.164 µM)			
COC(C)=C1NC(=O)C(C(C)O)NC(=O)c2csc(n2)-c2cc(O)c(-c3nc(C(=O)NC(CN4CCN(c5cccnc5)CC4)C(N)=O)cs3)nc2-c2csc(n2)C2COC(=O)c3c4c5c(cccc5n3O)COC(=O)C(OC3CC(C)(O)C(N(C)C)C(C)O3)C(OC4)C(NC(=O)c3csc1n3)c1nc(cs1)C(=O)N2 (stereo not drawn) [Example 85]	0.06 µg/mL (≈ 0.0375 µM)	0.007 µg/mL (≈ 0.00437 µM)	0.25 µg/mL (≈ 0.156 µM)			
COC(C)=C1NC(=O)C(C(C)O)NC(=O)c2csc(n2)-c2cc(O)c(-c3nc(C(=O)NC(CN4CCCC4C(C)O)C(N)=O)cs3)nc2-c2csc(n2)C2COC(=O)c3c4c5c(cccc5n3O)COC(=O)C(OC3CC(C)(O)C(N(C)C)C(C)O3)C(OC4)C(NC(=O)c3csc1n3)c1nc(cs1)C(=O)N2 (stereo not drawn) [Example 86]				0.007 µg/mL (≈ 0.00451 µM)	0.015 µg/mL (≈ 0.00966 µM)	0.06 µg/mL (≈ 0.0386 µM)
CCC(O)C1CCCN1CC(NC(=O)c1csc(-c2nc3c(cc2O)-c2nc(cs2)C(=O)NC(C(C)O)C(=O)NC(=C(C)OC)c2nc(cs2)C(=O)NC2c4nc(cs4)C(=O)NC(COC(=O)c4c5c6c(cccc6n4O)COC(=O)C(OC4CC(C)(O)C(N(C)C)C(C)O4)C2OC5)c2nc-3cs2)n1)C(N)=O (stereo not drawn) [Example 87]				0.015 µg/mL (≈ 0.00957 µM)	0.007 µg/mL (≈ 0.00447 µM)	0.06 µg/mL (≈ 0.0383 µM)
COC(C)=C1NC(=O)C(C(C)O)NC(=O)c2csc(n2)-c2cc(O)c(-c3nc(C(=O)NC(CN4CCCC4C(C)O)C(N)=O)cs3)nc2-c2csc(n2)C2COC(=O)c3c4c5c(cccc5n3O)COC(=O)C(OC3CC(C)(O)C(N(C)C)C(C)O3)C(OC4)C(NC(=O)c3csc1n3)c1nc(cs1)C(=O)N2 (stereo not drawn) [Example 88]				0.007 µg/mL (≈ 0.00451 µM)	0.03 µg/mL (≈ 0.0193 µM)	0.06 µg/mL (≈ 0.0386 µM)
COC(C)=C1NC(=O)C(C(C)O)NC(=O)c2csc(n2)-c2cc(O)c(-c3nc(C(=O)NC(CN4CCCC4C(C)(C)O)C(N)=O)cs3)nc2-c2csc(n2)C2COC(=O)c3c4c5c(cccc5n3O)COC(=O)C(OC3CC(C)(O)C(N(C)C)C(C)O3)C(OC4)C(NC(=O)c3csc1n3)c1nc(cs1)C(=O)N2 (stereo not drawn) [Example 89]				0.003 µg/mL (≈ 0.00191 µM)	0.007 µg/mL (≈ 0.00447 µM)	0.03 µg/mL (≈ 0.0191 µM)
COC(C)=C1NC(=O)C(C(C)O)NC(=O)c2csc(n2)-c2cc(O)c(-c3nc(C(=O)NC(CN4CCCC4C(O)C4CCCCC4)C(N)=O)cs3)nc2-c2csc(n2)C2COC(=O)c3c4c5c(cccc5n3O)COC(=O)C(OC3CC(C)(O)C(N(C)C)C(C)O3)C(OC4)C(NC(=O)c3csc1n3)c1nc(cs1)C(=O)N2 (stereo not drawn) [Example 90]				0.03 µg/mL (≈ 0.0185 µM)	0.007 µg/mL (≈ 0.00432 µM)	0.06 µg/mL (≈ 0.037 µM)
